Test results reported in patent US11278514B2, “Composition compromising dunnione as effective ingredient for prevention or alleviation of hair loss” (NADIANBIO LTD., priority 2018, dated 2022).
Entries after “also recorded” stand apart in the source; their conditions may differ. Where two headings read alike, the source gives them in different places.

How the values were obtained:
[1] = system: C57BL/6 mice having alopecia caused by cyclophosphamide; assay: Visual observation of skin in animal model having alopecia caused by cyclophosphamide; assay type: in vivo
Source text: In 9-week-old C57BL/6 mice, the hair on the dorsal skin area was first removed with an animal hair clipper, and then a depilatory ([…] cream, manufactured by Ildong Pharmaceutical Co., Ltd.) was applied to the dorsal skin to completely remove the hair.

NQO1 knockout mice [2] = system: NQO1 knockout mice
Procedure: The day, on which the NQO1 knockout mice were hair-removed according to Example 1, was set as day 0, and the animals were divided into the following experimental groups and used for experiments: normal group (Control, 4 animals) in which only PBS is intraperitoneally injected on day 9; cyclophosphamide group (CYP, 6 animals) in which cyclophosphamide (150 mg/kg) is intraperitoneally injected on day 9; combination-treated group (CYP+Dunnione, 6 animals) in which dunnione is orally administered on a daily basis starting from 3 days prior to treatment with cyclophosphamide; and dunnione alone-treated group (Dunnione, 4 animals) in which only dunnione (20 mg/kg) is administered (FIG. 1).

NAD^+ = assay: NAD+ and NADH concentrations and NAD+/NADH ratio in skin tissue, cyclophosphamide alopecia model; assay type: in vivo, mice; details: cyclophosphamide plus dunnione vs cyclophosphamide
Procedure: Specifically, in order to quantify the NAD^+ and NADH concentrations in the skin tissue obtained from the animal model prepared by the method in Example 2, the skin tissue was tested with the analysis kit (E2ND-100) of BioAssay Systems according to the instruction manual, and then the NAD^+/NADH ratio was analyzed. First, 10 mg of skin tissue was collected from the animal model. Then, 100 μl of extraction solution for NAD^+ or NADH was added to the skin tissue and homogenized. Then, the homogenized skin tissue was subjected to heat treatment at 60° C. for 5 minutes. Neutralization was performed by addition of the same volume of the extraction solution, and then centrifugation was performed at 14,000 rpm for 5 minutes to obtain the supernatant. Then, a developing reagent was added to the supernatant. The NAD^+ and NADH concentrations were determined from the absorbance measured at a wavelength of 565 nm, and the NAD^+/NADH ratio was analyzed.

Sirt1 protein = assay: Expression level of Sirt1 protein in skin tissue (western blot), cyclophosphamide alopecia model; assay type: in vivo, mice; details: cyclophosphamide plus dunnione; day 18
Procedure: In the cyclophosphamide-induced alopecia mouse model of Example 2, expression level of Sirt1 protein and acetylation reaction of the target proteins thereof, NF-κB p65 and p53, were identified on the skin tissue obtained on day 18 after hair removal.
Specifically, 10 mg of the skin tissue obtained from the animal model prepared by the method in Example 2 was homogenized by addition of a lysis solution (RIPA lysis buffer). Then, centrifugation was performed at 14,000 rpm for 10 minutes. The protein concentration in the supernatant was quantified with a bovine serum albumin (BSA) standard solution. The skin tissue protein was used in an amount of 40 μg per test solution. First, the homogenized skin tissue was mixed with a sample solution (Bio-Rad, 161-0747) and inactivated at a temperature of 95° C. for 5 minutes. Thereafter, the protein was separated by a sodium dodecyl sulfate-polyacrylamide gel electrophoresis (SDS-PAGE) method, and then transferred to a nitrocellulose membrane. Treatment with anti-Sirt1 antibody (Abcam), anti-acetyl NF-κB p65 antibody and anti-acetyl p53 antibody (Cell Signaling Technologies), and anti-β-actin antibody (Santa Cruz Biotechnology) as primary antibodies were performed, and reaction was allowed to proceed. […]

[3] = system: C57BL/6 mice having alopecia caused by docetaxel, adriamycin, and cyclophosphamide; assay: Visual observation of skin in animal model having alopecia caused by 6×TAC; assay type: in vivo
Source text: In 9-week-old C57BL/6 mice, the hair on the dorsal skin area was first removed with an animal hair clipper, and then a depilatory (Niclean cream, manufactured by Ildong Pharmaceutical Co., Ltd.) was applied to the dorsal skin to completely remove the hair.
Docetaxel (DTX), adriamycin (ADR), and cyclophosphamide (CYP) were used as anticancer drugs, and combined administration of the three anticancer drugs was designated as TAC. In addition, information was obtained from the National Comprehensive Cancer Network (NCCN) for the single concentration (designated as 1× concentration) of each anticancer drug which is actually clinically applied to cancer patients. As described below, for the experimental group to be treated with anti-cancer drugs, the mice were treated with docetaxel, adriamycin, and cyclophosphamide at 6× concentration (11.58 mg/kg, 9.24 mg/kg, and 76.8 mg/kg, respectively). When treatment with the anticancer drugs is performed, the anticancer drugs were injected intraperitoneally at time intervals of 1 hour so that each of the anticancer drugs can be sufficiently absorbed.

NQO1 knockout mice [4] = assay: Visual observation of skin in NQO1 knockout mice treated with 6×TAC; assay type: in vivo
Source text: In order to identify whether a hair loss inhibitory effect of dunnione in an animal model having combined chemotherapy-induced alopecia is dependent on the enzyme NQO1, the same experiments as described in Examples 1 and 2 were repeatedly performed using NQO1 knockout mice in place of the C57BL/6 mice.

NQO1 knockout mice [5] = assay: Histological changes in skin (H&E) in NQO1 knockout mice treated with 6×TAC; assay type: in vivo; details: day 18
Procedure: The day, on which the NQO1 knockout mice were hair-removed according to Example 1, was set as day 0, and the mice in each of the experimental groups described in Example 5 were sacrificed on day 18. Subsequently, the mouse dorsal skin was dissected parallel or perpendicular to the vertebral line, and removed. The removed skin was fixed with a Bouin's solution for 12 hours, subjected to dehydration, and embedded in paraffin. Then, the resulting product was prepared into 5-μm sections. The prepared sections were subjected to hematoxylin and eosin (H&E) staining, and histological changes in the skin in each experimental group were observed.

[6] = target: NAD(P)H: quinone oxidoreductase 1 (NQO1) (Homo sapiens, UniProt P15559); details: reported to date (Pandit et al. 2015; Shen et al. 2017); cited from earlier work
NAD(P)H: quinone oxidoreductase 1 (NQO1), sequence (P15559 whole entry, species assumed): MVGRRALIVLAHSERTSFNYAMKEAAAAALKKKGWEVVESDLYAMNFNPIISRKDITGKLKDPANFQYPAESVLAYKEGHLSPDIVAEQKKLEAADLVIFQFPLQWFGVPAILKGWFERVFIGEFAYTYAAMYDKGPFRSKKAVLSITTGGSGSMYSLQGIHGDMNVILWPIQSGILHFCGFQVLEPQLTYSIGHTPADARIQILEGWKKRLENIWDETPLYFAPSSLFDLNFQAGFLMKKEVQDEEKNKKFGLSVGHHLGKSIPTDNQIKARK

[7] = dunnione alone (20 mg/kg), day 18

CC1OC2=C(C(=O)C(=O)c3ccccc32)C1(C)C (centres unmarked) [dunnione, 2,3-dihydro-2,3,3-trimethyl-naphtho[1,2-b]furan-4,5-dione]
hair growth, visual observation of skin ([1]; CYP+Dunnione combination-treated group, day 18 after hair removal): hair grew overall so that the skin is full of hair and looks black | hair growth, visual observation of skin ([1]; CYP+Dunnione: cyclophosphamide 150 mg/kg i.p. day 9, dunnione oral daily from 3 days prior, day 14 after hair removal): began to grow more hair than the cyclophosphamide alone-treated group | hair loss ([1]; cyclophosphamide plus dunnione combination-treated group compared with cyclophosphamide alone-treated group): inhibited hair loss | hair growth, visual observation of skin ([1]; dunnione alone (20 mg/kg), day 18 after hair removal): hair grew overall so that the skin is full of hair and looks black | hair growth, visual observation of skin (NQO1 knockout mice [2]; CYP+Dun combination-treated group, until day 18): hair hardly grew until day 18 after hair removal; also recorded: progression of hair loss to a level similar to the cyclophosphamide alone-treated group | start of hair growth, visual observation of skin (NQO1 knockout mice [2]; dunnione alone (20 mg/kg)): hair began to grow starting from day 12 after hair removal | hair growth, visual observation of skin (NQO1 knockout mice [2]; [7]): hair grew overall on day 18 so that the skin is full of hair and looks black | NAD^+/NADH ratio in skin tissue (NAD^+; day 18): increases | NAD^+ concentration in skin tissue (NAD^+; day 18 after hair removal): increases | expression level of Sirt1 protein in skin tissue (Sirt1 protein): increases; also recorded: normalizes | hair growth, visual observation of skin ([3]; 6×TAC+Dunnione combination-treated group, day 18): hair grew overall so that the skin is full of hair and looks black | hair growth, visual observation of skin ([3]; 6×TAC+Dunnione: 6×TAC i.p. day 9, dunnione oral daily from 3 days prior, day 14): began to grow more hair than the 6×TAC alone-treated group | hair loss ([3]; TAC plus dunnione combination-treated group compared with TAC alone-treated group): inhibited hair loss | hair growth, visual observation of skin ([3]; dunnione alone, day 18): hair grew overall so that the skin is full of hair and looks black | hair growth, visual observation of skin (NQO1 knockout mice [4]; 6×TAC+Dunnione combination-treated group, until day 18): hair hardly grows until day 18 after hair removal; also recorded: progression of hair loss to a level similar to the TAC alone-treated group | start of hair growth, visual observation of skin (NQO1 knockout mice [4]; dunnione alone (20 mg/kg)): hair began to grow starting from day 12 after hair removal | hair growth, visual observation of skin (NQO1 knockout mice [4]; [7]): hair grew overall on day 18 so that the skin is full of hair and looks black | development of hair follicles and inner root sheaths (histology) (NQO1 knockout mice [5]; 6×TAC+Dunnione combination-treated group): the hair follicles have poorly developed or the inner root sheaths have insufficiently developed; also recorded: falling-off of hair follicles and inner root sheaths in the skin tissue progresses | development of hair follicles and inner root sheaths (histology) (NQO1 knockout mice [5]; dunnione alone): the hair follicles and inner root sheaths have well developed overall | activity of the enzyme NQO1 [6]: increases
